According to PMC6152131, “Pharmacokinetic Study of Biotransformation Products from an Anxiolytic Fraction of Tilia americana” (Molecules : A Journal of Synthetic Chemistry and Natural …, 2017):

Assays:
[1] = Stability of flavonoids and biotransformation products in mouse plasma under different handling conditions; format: in vitro ADME, mice; details: for Accuracy Bias 0 h / Observed Conc. 0 h / Accuracy Bias 8 h / Observed Conc. 8 h / Accuracy Bias 24 h / Observed Conc. 24 h: room temperature (25 °C); for Observed Conc. 0 h / Observed Conc. 8 h / Observed Conc. 24 h / Observed Conc. Autosampler (4 °C; 8 h) / Observed Conc. Long-term (−70 °C; 1 month): n = 6; for Accuracy Bias Autosampler (4 °C; 8 h) / Accuracy Bias Long-term (−70°C; 1 month) / Observed Conc. Autosampler (4 °C; 8 h) / Observed Conc. Long-term (−70 °C; 1 month): storage stability
Method in brief: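 Mouse plasma QC samples containing the flavonoids and their biotransformation products were tested for stability across storage and handling conditions, including long-term, autosampler and bench-top tests. Samples were extracted with methanol, filtered, and analyzed by HPLC on an RP-18e column with acetonitrile–water (55:45) at 1 mL/min and detection at λ = 220 nm. Results were compared against fresh QC samples; stability required deviation below 15%.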

[2] = Plasma concentration after a single oral dose of the anxiolytic fraction (HPLC); format: in vivo, ICR mice; details: mouse, plasma, ICR mice, n = 10
Method in brief: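 Animals dosed orally with 200 mg/kg of active fraction; retro-orbital blood taken from separate groups of ten at 0–1440 min. Lyophilized plasma extracted in methanol and analysed by RP-18 HPLC with diode-array detection at 220 nm against a calibration curve; PK parameters from observed data, mean ± SD.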

[3] = Pharmacokinetic analysis, two-compartment model (PKSolver); format: in vivo, ICR mice; details: two-compartment model
Method: The data shown in Table 2 were applied to the program PKSolver. After a single oral administration of 200 mg/kg of the anxiolitic fraction of T. americana, the behavior of the concentration-time data allowed us to determine the main pharmacokinetic parameters under a two-compartment model (Table 3), and the same program provided the graphical behavior of the variables and the adjustment to the two-compartment model.
To evaluate the suitability of the assay for the pharmacokinetic studies, 200 mg/kg of the active fraction was orally administered to the animals. Ten animals were used in each group at different times (0, 5, 10, 15, 30, 60, 120, 240, 480, 720, and 1440 min). Pharmacokinetic calculations were performed using the observed data. All data was subsequently processed using the PKSolver add-in program for Microsoft Excel written in Visual Basic for Applications. All values obtained were expressed in mean ± standard deviation.
For the pharmacokinetic assay, the selection was made either from a one-compartment or a two-compartment model, with the use of both the Akaike information criterion (AIC) and the Schwarz criterion (SC). Using these two criteria, one can select which model is more suited to being adjusted, to the point where it reaches the lowest values of the AIC or SC criteria, which means that the chosen model is more parsimonious (less parameters required) and best fits the data (low error prediction).

[4] = high nominal conc. (7.00; 44.37; 4.50; 31.25 µg/mL)
[5] = low nominal conc. (1.75; 11.02; 1.12; 1.95 µg/mL)
[6] = medium nominal conc. (3.50; 22.18; 2.24; 7.81 µg/mL)
[7] = mouse, oral 200 mg/kg anxiolytic fraction, ICR mice plasma
[8] = oral 200 mg/kg anxiolytic fraction, ICR mice plasma
[9] = oral 200 mg/kg anxiolytic fraction, ICR mice plasma, n = 10

O=C(O)Cc1ccc(O)cc1 [p-HPAA, para-hydroxyphenylacetic acid]
Accuracy Bias 0 h ([1]; high nominal conc.): 1.64% | Observed Conc. 0 h ([1]; high nominal conc. (rutin 7.00; quercetin glucoside, quercitrin, tiliroside 44.37; kaempferol 4.50; m-HPAA, p-HPAA, DOPAC 31.25 µg/mL)): 31.76 ± 0.28 µg/mL | Accuracy Bias 0 h ([1]; low nominal conc.): 1.44% | Observed Conc. 0 h ([1]; low nominal conc. (rutin 1.75; quercetin glucoside, quercitrin, tiliroside 11.02; kaempferol 1.12; m-HPAA, p-HPAA, DOPAC 1.95 µg/mL)): 1.92 ± 0.02 µg/mL | Accuracy Bias 0 h ([1]; medium nominal conc.): 0.65% | Observed Conc. 0 h ([1]; medium nominal conc. (rutin 3.50; quercetin glucoside, quercitrin, tiliroside 22.18; kaempferol 2.24; m-HPAA, p-HPAA, DOPAC 7.81 µg/mL)): 7.86 ± 0.11 µg/mL | Accuracy Bias 8 h ([1]; high nominal conc.): 1.26% | Observed Conc. 8 h [1, 4]: 31.64 ± 0.28 µg/mL | Accuracy Bias 8 h ([1]; low nominal conc.): 1.40% | Observed Conc. 8 h [1, 5]: 1.92 ± 0.02 µg/mL | Accuracy Bias 8 h ([1]; medium nominal conc.): 2.05% | Observed Conc. 8 h [1, 6]: 7.94 ± 0.11 µg/mL | Accuracy Bias 24 h ([1]; high nominal conc.): 1.26% | Observed Conc. 24 h [1, 4]: 31.64 ± 0.31 µg/mL | Accuracy Bias 24 h ([1]; low nominal conc.): 0.85% | Observed Conc. 24 h [1, 5]: 1.93 ± 0.01 µg/mL | Accuracy Bias 24 h ([1]; medium nominal conc.): 1.01% | Observed Conc. 24 h [1, 6]: 7.89 ± 0.05 µg/mL | Accuracy Bias Autosampler (4 °C; 8 h) ([1]; high nominal conc.): 1.40% | Accuracy Bias Long-term (−70°C; 1 month) ([1]; high nominal conc.): 0.85% | Observed Conc. Autosampler (4 °C; 8 h) [1, 4]: 31.64 ± 0.28 µg/mL | Observed Conc. Long-term (−70 °C; 1 month) [1, 4]: 31.64 ± 0.28 µg/mL | Accuracy Bias Autosampler (4 °C; 8 h) ([1]; low nominal conc.): 1.26% | Accuracy Bias Long-term (−70°C; 1 month) ([1]; low nominal conc.): 1.26% | Observed Conc. Autosampler (4 °C; 8 h) [1, 5]: 1.93 ± 0.02 µg/mL | Observed Conc. Long-term (−70 °C; 1 month) [1, 5]: 1.92 ± 0.01 µg/mL | Accuracy Bias Autosampler (4 °C; 8 h) ([1]; medium nominal conc.): 2.05% | Accuracy Bias Long-term (−70°C; 1 month) ([1]; medium nominal conc.): 1.01% | Observed Conc. Autosampler (4 °C; 8 h) [1, 6]: 7.89 ± 0.11 µg/mL | Observed Conc. Long-term (−70 °C; 1 month) [1, 6]: 7.97 ± 0.05 µg/mL | concentration at 5 min ([2]; 5 min after single oral dose of 200 mg/kg of the anxiolytic fraction, ND = not detected): 5400 ± 360 ng/mL | concentration at 10 min ([2]; 10 min after single oral dose of 200 mg/kg of the anxiolytic fraction): 6710 ± 440 ng/mL | concentration at 15 min ([2]; 15 min after single oral dose of 200 mg/kg of the anxiolytic fraction): 6010 ± 330 ng/mL | concentration at 30 min ([2]; 30 min after single oral dose of 200 mg/kg of the anxiolytic fraction): 5380 ± 510 ng/mL | concentration at 60 min ([2]; 60 min after single oral dose of 200 mg/kg of the anxiolytic fraction): 5310 ± 540 ng/mL | concentration at 120 min ([2]; 120 min after single oral dose of 200 mg/kg of the anxiolytic fraction): 5290 ± 320 ng/mL | concentration at 240 min ([2]; 240 min after single oral dose of 200 mg/kg of the anxiolytic fraction): 5150 ± 230 ng/mL | concentration at 480 min ([2]; 480 min after single oral dose of 200 mg/kg of the anxiolytic fraction): 5080 ± 240 ng/mL | concentration at 720 min ([2]; 720 min after single oral dose of 200 mg/kg of the anxiolytic fraction): 4990 ± 350 ng/mL | concentration at 1440 min ([2]; 1440 min after single oral dose of 200 mg/kg of the anxiolytic fraction): 4910 ± 210 ng/mL | AUC(0-inf) [3, 7]: 183 µg·h/mL | Cmax [3, 7]: 6260 ng/mL | Tmax [3, 7]: 0.186 h | AUC(0-t) ([3]; mouse, oral 200 mg/kg anxiolytic fraction, ICR mice plasma, read-out: AUC0→1440 (converted)): 73.7 µg·h/mL | MRT ([3]; mouse, oral 200 mg/kg anxiolytic fraction, ICR mice plasma, read-out: MRT (mean residence time) (converted)): 47.2 h | k el ([3]; mouse, oral 200 mg/kg anxiolytic fraction, ICR mice plasma, read-out: k10 (apparent first-order elimination rate constant from the central compartment) (converted)): 1e-05 s⁻¹ | half-life ([3]; mouse, oral 200 mg/kg anxiolytic fraction, ICR mice plasma, read-out: t1/2β): 33.2 h | CL/F (apparent clearance) [3, 8]: 0.018 (mg/Kg)/(μg/mL)/min | V/F (apparent volume of distribution) [3, 8]: 29.46 (mg/Kg)/(µg/mL) | k12 (transfer rate constant central to peripheral compartment) [3, 8]: 0.007 min⁻¹ | k21 (transfer rate constant peripheral to central compartment) [3, 8]: 0.009 min⁻¹ | ka (apparent first-order absorption rate constant) [3, 8]: 0.36 min⁻¹ | t1/2ka (absorption half time) [3, 8]: 1.92 min | t1/2α [3, 8]: 0.7042 h | α [3, 8]: 0.02 min⁻¹ | β [3, 8]: 0.0003 min⁻¹ | A (plasma concentration coefficient, central compartment) [3, 9]: 3.19 µg/mL | B (plasma concentration coefficient, peripheral compartment) [3, 9]: 3.75 µg/mL | index: relation between rate constants of k12 with respect to k21 [3]: 0.77
